Measurements: patent US20050069544A1, “Pharmaceutical composition and a method of treatment” (priority 1998, published 2005)
Entries after “also recorded” stand apart in the source; their conditions may differ.

System: PBMC from RhD alloimmunised donors
Assay: Cell proliferation assay (3H-thymidine) of PBMC from RhD alloimmunised donors stimulated with RhD peptides
Format: cell-based, human
Conditions: peptide 20 μg/ml, 5 days
Protocol: Five complete panels of 68 15-mer peptides, with 5 or 10 amino acid overlaps, were synthesized (Multiple Peptide Service, Cambridge Research Biochemicals, Cheshire, UK and Dept. Of Biochemistry, University of Bristol, UK), corresponding to the sequences of the 30 kD Rh proteins associated with expression of the RhD or RhcE/ce/Ce/CE blood group antigens respectively (Tables 1 to 5). An additional three peptide sequences is added to the panel of RhD peptides to account for the Ile to Met substitution described earlier (numbered from 69 to 71). The amino acid sequences for each of these proteins were deduced from cDNA analyses (FIG. 1). In order to ensure purity, each panel was synthesized by fluorenylmethoxycarbonyl chemistry on resin using a base-labile linker, rather than by conventional pin technology, and randomly selected peptides were screened for purity by HPLC and amino acid analysis.
Peripheral blood mononuclear cells (PBMC) from donors or patients were separated from fresh blood samples using Ficoll-Hypaque. The donors and patients had become alloimmunised with RhD-positive blood either through pregnancy, a blood transfusion or through immunization with the relevant blood.
(§1) PBMC were cultured in 100 μl volumes in microtitre plates at a concentration of 1.25×10^6 cells/ml in an Alpha Modification of Eagle's Medium (ICN Flow, Bucks UK) supplemented with 5% autologous serum, 4 mM L-Glutamine (Gibco, Paisley, UK), 100 U/ml sodium benzylpenicillin G (Sigma), 100 μg/ml streptomycin sulphate (Sigma), 5×10^−5M 2-mercaptoethanol (Sigma) and 20 mM HEPES pH7,2 (Sigma). All plates were incubated at 37° C. in a humidified atmosphere of 5% CO2/95% air. The cell proliferation in cultures was estimated from the incorporation of ^3H-Thymidine in triplicate wells 5 days after stimulation with antigen as described previously. Proliferation results are presented either as the mean CPM+/−SD of the triplicate samples, or as a stimulation index (SI), expressing the ratio of mean CPM in stimulated versus unstimulated control cultures. An S1>3 with CPM>1000 is interpreted as representing a positive response.

Row | Sequence | proliferative T-cell response to RhD peptides
1 | CLPLWALTLEAALIL (Residues 12-26 RhD; listed as Homo sapiens) [peptide 2] | most commonly targeted
2 | FSLLGLLGEIIYIVL (Residue 332-346 RhD; listed as Homo sapiens) [compound 56] | most commonly targeted
3 | HSWSSVAFNLFMLAL (Residue 72-86 RhD; listed as Homo sapiens) [compound 10] | most commonly targeted
4 | LLTGLLLNLKIWKAP (Residue 382-396 RhD; listed as Homo sapiens) [compound 63] | most commonly targeted
5 | SAVLAGGVAVGTSCH (Residue 272-286 RhD; listed as Homo sapiens) [peptide 46] | most commonly targeted
6 | VTALGNLRMVISNIF (Residue 147 - 161 RhD; listed as Homo sapiens) [compound 22] | most commonly targeted

System: PBMC from RhD-alloimmunised donors
Assay: celELISA of cytokine production (IL-10, TGF-β1) by PBMC from RhD alloimmunised donors
Format: cell-based, human
Conditions: FIG. 3 and FIG. 10
Protocol: Cultured T-cells are stimulated with each of the epitopes given in Table 1 and after 5 days the responding cells were transferred to flat-bottomed microtitre plates (96-well Nunc-Immuno Maxisorp) coated with […] per well of monoclonal anti-cytokine capture antibody diluted in 0.05M alkaline carbonate coating buffer pH 9.6. Unbound capture antibody was removed by two washes with HBSS and non-specific binding potential blocked by incubation with 200 μl per well of phosphate buffered saline, pH 7.4 (PBS containing 3% BSA).
Five days after stimulation, lymphocyte cultures were mixed to resuspend the cells and duplicate 100 μl aliquots were transferred into wells coated with the respective capture antibody specific for IFN-γ, IL-10 or TGF-β. The plates coated with capture antibodies and layered by lymphocytes were then incubated for a further 24 hours at 37° C. in a humidified atmosphere of 5% CO2 and 95% air. After this incubation the PBMC were removed by four washes with 0.2% Tween/PBS. One hundred microlitre aliquots of the appropriate biotinylated monoclonal detection antibody in 0.2% BSA/PBS were then added to the wells and incubated at room temperature for 45 minutes.
After six washes with 0.5% Tween/PBS, 100 μl of 1:100,000 ExtrAvidin-alkaline phosphatase conjugate (Sigma) was then added to each of the wells and incubated at room temperature for 30 minutes. The ExtrAvidin conjugate was removed by eight washes with 0.2% Tween/PBS, and the plates developed using 100 μl per well of p-nitrophenyl phosphate (Sigma) 1.0 mg/ml in 0.05M carbonate alkaline buffer pH9.6. The absorbance at 405 nm was then measured using a Multiscan plate reader (Labsystems Basingstoke UK).
Cytokine secretion was measured by interpolation from a standard curve generated by incubating duplicate wells with doubling dilutions of recombinant human IFN-γ or IL-10 or TGF-β (Pharmingen). The standard curves were modelled by a smoothed cubic spline function applied to the absorbance reading and the cytokine concentrations after a quasilogarithmic transformation, where: quasiloge(z)=loge[z+{square root}[z^2+1]).
Using celELISA technique, the 68 RhD peptide panel was screened for the ability to induce IL-10 and TGF-β production for PBMC from a total of 19 samples from 12 different alloimmune donors. PMBC from 10 out of the 12 RhD-alloimmunised donors could produce IL-10 to at least one of the RhD peptides on at least one occasion, with a total of 194 significant IL-10 responses to the RhD peptides between all the donors. The RhD peptides that induced significant TGF-β or IL-10 and proliferative responses from PBMC in all the samples screened are summarised in FIGS. 10 and 11.

Row | Sequence | IL-10 production by PBMC
7 | FSLLGLLGEIIYIVL (Residue 332-346 RhD; listed as Homo sapiens) [compound 56] | commonly induce the production of IL-10
8 | LGLVAGLISVGGAKY (Residue 297-311 RhD; listed as Homo sapiens) [compound 49] | commonly induce the production of IL-10; also recorded: induce IL-10 production in the absence of a proliferative response or the production of IFN-γ or IL-4

Same assay, conditions: FIG. 3 and FIG. 11

Row | Sequence | TGF-β1 production by PBMC
9 | LGFLTSSFRRHSWSS (Residue 62-76 RhD; listed as Homo sapiens) [compound 8] | commonly induce the production of TGF-β1
10 | WLAMVLGLVAGLISV (Residue 292-306 RhD; listed as Homo sapiens) [peptide 48] | commonly induce the production of TGF-β1; also recorded: induces TGF-β1 production in the absence of a proliferative response or the production of IFN-γ or IL-4

System: T-cells from AIHA patients
Assay: Cell proliferation assay of PBMC/T-cells from autoimmune haemolytic anaemia patients
Format: cell-based, human
Conditions: AIHA patients; FIG. 17A
Protocol: as §1
The experiments mentioned in Example 1.1 were repeated using blood from subjects suffering from autoimmune haemolytic anaemia.
These experiments can be carried out using other rhesus proteins, such as RhcE, Rhce, RhCe or RhCE protein. T-cells from RhD-negative subjects suffering AIHA were tested with the panel of ce peptides (Table 3).

Row | Sequence | proliferative T-cell response to RhD peptides
11 | AALILLFYFFTHYDA (Residue 22- 36 RhD; listed as Homo sapiens) [compound 3] | exhibited a proliferative response
12 | ATIPSLSAMLGALFL (Residue 202-216 RhD; listed as Homo sapiens) [compound 33] | exhibited a proliferative response
13 | CLPLWALTLEAALIL (Residues 12-26 RhD; listed as Homo sapiens) [peptide 2] | exhibited a proliferative response
14 | GKVNLAQLVVMVLVE (Residue 132-146 RhD; listed as Homo sapiens) [compound 20] | exhibited a proliferative response
15 | GLISVGGAKYLPGCC (Residue 302-316 RhD; listed as Homo sapiens) [compound 50] | exhibited a proliferative response
16 | GTSCHLIPSPWLAMV (Residue 282-296 RhD; listed as Homo sapiens) [compound 47] | exhibited a proliferative response
17 | LAIVIALTSGLLTGL (Residue 372-386 RhD; listed as Homo sapiens) [compound 62] | exhibited a proliferative response

Same assay, conditions: RhD-negative AIHA subjects; FIG. 17B

Row | Sequence | proliferative T-cell response to ce peptides
18 | FSLLGLLGEITYIVL (Residue 332-346 Rhce; listed as Homo sapiens) [compound 195] | exhibited a proliferative response
19 | GTSCHLIPSPWLAMV (Residue 282-296 Rhce; listed as Homo sapiens) [compound 186] | exhibited a proliferative response
20 | KGLVASYQVGQDLTV (Residue 42-56 Rhce; listed as Homo sapiens) [compound 144] | exhibited a proliferative response
21 | THYDASLEDQKGLVA (Residues 32-46 Rhce; listed as Homo sapiens) [compound 143] | exhibited a proliferative response
22 | TVAWCLPKPLPKGTE (Residue 182-196 Rhce; listed as Homo sapiens) [compound 168] | exhibited a proliferative response
